Source: US7700782B2, “Compounds 569” (AstraZeneca AB, priority 2007, dated 2010)
Counter-ions that a name gives are not always drawn.

biological target: T1, Adrenergic β2 (Homo sapiens, UniProt P07550); assay: Adrenergic β2 mediated cAMP production in H292 cells (AlphaScreen cAMP detection); format: cell-based; details: Intrinsic Activity, fraction relative to the maximum activity determined for formoterol
T1 construct: Adherent H292 cells were removed from tissue culture flasks; endogenous in cells; host or cells: H292 cells
Summary of the method: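 H292 cells, 5000/well, preincubated 10 min with rolipram (final 300 μM, 1.6% DMSO) in HEPES pH 7.4 HBSS, then compound 60 min at room temperature. Lysate cAMP quantified by AlphaScreen against a cAMP standard curve. pEC50 and intrinsic activity (fraction of formoterol maximum) from four-parameter logistic fits.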

T1 sequence (P07550 whole entry): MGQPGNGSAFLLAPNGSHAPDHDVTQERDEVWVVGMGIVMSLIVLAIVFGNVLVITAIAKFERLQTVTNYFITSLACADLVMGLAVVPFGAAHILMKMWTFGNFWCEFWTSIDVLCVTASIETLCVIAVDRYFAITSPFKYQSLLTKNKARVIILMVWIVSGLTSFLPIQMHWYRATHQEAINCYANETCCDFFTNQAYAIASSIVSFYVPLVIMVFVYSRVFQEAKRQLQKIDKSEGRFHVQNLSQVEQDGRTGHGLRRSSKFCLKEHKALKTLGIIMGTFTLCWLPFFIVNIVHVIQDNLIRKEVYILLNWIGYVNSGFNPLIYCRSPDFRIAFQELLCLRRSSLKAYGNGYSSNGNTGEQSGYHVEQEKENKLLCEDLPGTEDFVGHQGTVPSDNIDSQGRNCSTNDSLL

Row | Compound | β2 Int Act
1 | O=C(CCNCCc1ccccc1Cl)N(CCNCCc1ccc(O)c2[nH]c(=O)sc12)C1CCCCC1 [Example 17, N^3-[2-(2-Chlorophenyl)ethyl]-N-cyclohexyl-N-(2-{[2-(4-hydroxy-2-oxo-2,3-dihydro-1,3-benzothiazol-7-yl)ethyl]amino}ethyl)-β-alaninamide bis-trifluoroacetic salt] | 0.90
2 | O=C(CCNCCc1cccc(O)c1)N(CCNCCc1ccc(O)c2[nH]c(=O)sc12)C1CCCCCCC1 [Example 90, N^1-Cyclooctyl-N^1-(2-{[2-(4-hydroxy-2-oxo-2,3-dihydro-1,3-benzothiazol-7-yl)ethyl]amino}ethyl)-N^3-[2-(3-hydroxyphenyl)ethyl]-β-alaninamide bis-trifluoroacetic acid salt] | 0.71
3 | CC(C)(CN(CCNCCc1ccc(O)c2[nH]c(=O)sc12)C(=O)CCNCCc1ccccc1)c1ccccc1 [Example 45, N^1-(2-{[2-(4-Hydroxy-2-oxo-2,3-dihydro-1,3-benzothiazol-7-yl)ethyl]amino}ethyl)-N^1-(2-methyl-2-phenylpropyl)-N^3-(2-phenylethyl)-β-alaninamide bis-trifluoroacetic acid salt] | 0.55
4 | O=C(CCNCCc1nc2ccccc2[nH]1)N(CCNCCc1ccc(O)c2[nH]c(=O)sc12)C1CCCCC1 [Example 77, N^3-[2-(1H-Benzimidazol-2-yl)ethyl]-N^1-cyclohexyl-N^1-(2-{[2-(4-hydroxy-2-oxo-2,3-dihydro-1,3-benzothiazol-7-yl)ethyl]amino}ethyl)-β-alaninamide tris-trifluoroacetic acid salt] | 0.54
5 | O=C(CCNCCc1ccc(O)c2[nH]c(=O)sc12)N(CCNCCc1ccc(O)c2[nH]c(=O)sc12)C1CCCCCC1 [Example 87, N^1-Cycloheptyl-N^3-[2-(4-hydroxy-2-oxo-2,3-dihydro-1,3-benzothiazol-7-yl)ethyl]-N^1-(2-{[2-(4-hydroxy-2-oxo-2,3-dihydro-1,3-benzothiazol-7-yl)ethyl]amino}ethyl)-β-alaninamide bis-trifluoroacetic acid salt] | 0.72
6 | CC1(C)CCC(N(CCNCCc2ccc(O)c3[nH]c(=O)sc23)C(=O)CCNCCc2cccc(O)c2)CC1 [Example 91, N^1-(4,4-Dimethylcyclohexyl)-N^1-(2-{[2-(4-hydroxy-2-oxo-2,3-dihydro-1,3-benzothiazol-7-yl)ethyl]amino}ethyl)-N^3-[2-(3-hydroxyphenyl)ethyl]-β-alaninamide bis-trifluoroacetic acid salt] | 0.75
7 | CC(C)(C)CN(CCNCCc1ccc(O)c2[nH]c(=O)sc12)C(=O)CCNCCc1cccc(F)c1 [Example 44, N^1-(2,2-Dimethylpropyl)-N^3-[2-(3-fluorophenyl)ethyl]-N^1-(2-{[2-(4-hydroxy-2-oxo-2,3-dihydro-1,3-benzothiazol-7-yl)ethyl]amino}ethyl)-β-alaninamide bis-trifluoroacetic acid salt] | 0.73
8 | O=C(CCNCCc1ccc2c(c1)OCO2)N(CCNCCc1ccc(O)c2[nH]c(=O)sc12)C1CCCCC1 [Example 76, N^3-[2-(1,3-Benzodioxol-5-yl)ethyl]-N^1-cyclohexyl-N^1-(2-{[2-(4-hydroxy-2-oxo-2,3-dihydro-1,3-benzothiazol-7-yl)ethyl]amino}ethyl)-β-alaninamide bis-trifluoroacetic acid salt] | 0.68
9 | CC(C)(CNCCC(=O)N(CCNCCc1ccc(O)c2[nH]c(=O)sc12)C1CCCC1)c1ccccc1 [Example 32, N-cyclopentyl-N-(2-{[2-(4-hydroxy-2-oxo-2,3-dihydro-1,3-benzothiazol-7-yl)ethyl]amino}ethyl)-N^3-(2-methyl-2-phenylpropyl)-β-alaninamide bis-trifluoroacetic acid salt] | 0.67
10 | O=C(CCNCCc1ccc(O)cc1)N(CCNCCc1ccc(O)c2[nH]c(=O)sc12)C1CCCCC1 [Example 34, N-Cyclohexyl-N-(2-{[2-(4-hydroxy-2-oxo-2,3-dihydro-1,3-benzothiazol-7-yl)ethyl]amino}ethyl)-N^3-[2-(4-hydroxyphenyl)ethyl]-β-alaninamide bis-trifluoroacetic acid salt] | 0.75
11 | O=C(CCNCCc1cccc(C(F)(F)F)c1)N(CCNCCc1ccc(O)c2[nH]c(=O)sc12)C1CCCCCC1 [Example 82, N^1-Cycloheptyl-N^1-(2-{[2-(4-hydroxy-2-oxo-2,3-dihydro-1,3-benzothiazol-7-yl)ethyl]amino}ethyl)-N^3-{2-[3-(trifluoromethyl)phenyl]ethyl}-β-alaninamide bis-trifluoroacetic acid salt] | 0.86
12 | O=C(CCNCCc1cc(F)cc(F)c1)N(CCNCCc1ccc(O)c2[nH]c(=O)sc12)C1CCCCC1 [Example 78, N^1-Cyclohexyl-N^3-[2-(3,5-difluorophenyl)ethyl]-N^1-(2-{[2-(4-hydroxy-2-oxo-2,3-dihydro-1,3-benzothiazol-7-yl)ethyl]amino}ethyl)-β-alaninamide bis-trifluoroacetic acid salt] | 0.91
13 | O=C(CCNCCc1cccc(Cl)c1)N(CCNCCc1ccc(O)c2[nH]c(=O)sc12)C1CCC(F)(F)CC1 [Example 47, N^3-[2-(3-Chlorophenyl)ethyl]-N^1-(4,4-difluorocyclohexyl)-N^1-(2-{[2-(4-hydroxy-2-oxo-2,3-dihydro-1,3-benzothiazol-7-yl)ethyl]amino}ethyl)-β-alaninamide bis-trifluoroacetic acid salt] | 0.73
14 | CC(CN(C(=O)CCNCCc1ccccc1)C1CCCCC1)NCCc1ccc(O)c2[nH]c(=O)sc12 (stereo not drawn) [Example 105, N-Cyclohexyl-N-(2-{[2-(4-hydroxy-2-oxo-2,3-dihydro-1,3-benzothiazol-7-yl)ethyl]amino}propyl)-N^3-(2-phenylethyl)-β-alaninamide bis-trifluoroacetic acid salt] | 0.86
15 | O=C(CCNCCc1ccc(Cl)cc1)N(CCNCCc1ccc(O)c2[nH]c(=O)sc12)C1CCOCC1 [Example 26, N^3-[2-(4-Chlorophenyl)ethyl]-N-(2-{[2-(4-hydroxy-2-oxo-2,3-dihydro-1,3-benzothiazol-7-yl)ethyl]amino}ethyl)-N-(tetrahydro-2H-pyran-4-yl)-β-alaninamide bis-trifluoroacetic acid salt] | 0.83
16 | O=C(CCNCCc1ccc(F)cc1F)N(CCNCCc1ccc(O)c2[nH]c(=O)sc12)C1CCCCCC1 [Example 55, N^1-Cycloheptyl-N^3-[2-(2,4-difluorophenyl)ethyl]-N^1-(2-{[2-(4-hydroxy-2-oxo-2,3-dihydro-1,3-benzothiazol-7-yl)ethyl]amino}ethyl)-β-alaninamide bis-trifluoroacetic acid salt] | 0.81
17 | CC(CN(C(=O)CCNCCc1cccc(F)c1)C1CCCCCC1)NCCc1ccc(O)c2[nH]c(=O)sc12 (stereo not drawn) [Example 104, N-Cycloheptyl-N^3-[2-(3-fluorophenyl)ethyl]-N-(2-{[2-(4-hydroxy-2-oxo-2,3-dihydro-1,3-benzothiazol-7-yl)ethyl]amino}propyl)-β-alaninamide bis-trifluoroacetic acid salt] | 0.81
18 | Cc1cccc(CCNCCC(=O)N(CCNCCc2ccc(O)c3[nH]c(=O)sc23)C2CCCCC2)c1 [Example 14, N-Cyclohexyl-N-(2-{[2-(4-hydroxy-2-oxo-2,3-dihydro-1,3-benzothiazol-7-yl)ethyl]amino}ethyl)-N^3-[2-(3-methylphenyl)ethyl]-β-alaninamide bis-trifluoroacetic acid salt] | 0.84
19 | CC(C)(C)CN(CCNCCc1ccc(O)c2[nH]c(=O)sc12)C(=O)CCNCCc1ccc(Cl)cc1 [Example 8, N^3-[2-(4-Chlorophenyl)ethyl]-N-(2,2-dimethylpropyl)-N-(2-{[2-(4-hydroxy-2-oxo-2,3-dihydro-1,3-benzothiazol-7-yl)ethyl]amino}ethyl)-β-alaninamide bis-trifluoroacetic acid salt] | 0.73
20 | Cc1cccc(CCNCCC(=O)N(CCNCCc2ccc(O)c3[nH]c(=O)sc23)C2CCCCCC2)c1 [Example 85, N^1-Cycloheptyl-N^1-(2-{[2-(4-hydroxy-2-oxo-2,3-dihydro-1,3-benzothiazol-7-yl)ethyl]amino}ethyl)-N^3-[2-(3-methylphenyl)ethyl]-β-alaninamide bis-trifluoroacetic acid salt] | 0.65
21 | CCCC(CCC)N(CCNCCc1ccc(O)c2[nH]c(=O)sc12)C(=O)CCNCCc1cccc(F)c1 [Example 63, N^3-[2-(3-Fluorophenyl)ethyl]-N^1-(2-{[2-(4-hydroxy-2-oxo-2,3-dihydro-1,3-benzothiazol-7-yl)ethyl]amino}ethyl)-N^1-(1-propylbutyl)-β-alaninamide bis-trifluoroacetic acid salt] | 0.93
22 | O=C(CCNCCc1cccc(F)c1F)N(CCNCCc1ccc(O)c2[nH]c(=O)sc12)C1CCCCCC1 [Example 56, N^1-Cycloheptyl-N^3-[2-(2,3-difluorophenyl)ethyl]-N^1-(2-{[2-(4-hydroxy-2-oxo-2,3-dihydro-1,3-benzothiazol-7-yl)ethyl]amino}ethyl)-β-alaninamide bis-trifluoroacetic acid salt] | 0.86
23 | CC(C)N(CCNCCc1ccc(O)c2[nH]c(=O)sc12)C(=O)CCNCCc1ccc(Cl)cc1 [Example 3, N^3-[2-(4-Chlorophenyl)ethyl]-N-(2-{[2-(4-hydroxy-2-oxo-2,3-dihydro-1,3-benzothiazol-7-yl)ethyl]amino}ethyl)-N-isopropyl-β-alaninamide bis-trifluoroacetic acid salt] | 0.34
24 | O=C(CCNCCc1cccc(Cl)c1)N(CCNCCc1ccc(O)c2[nH]c(=O)sc12)C1CCCC1 [Example 30, N^3-[2-(3-Chlorophenyl)ethyl]-N-cyclopentyl-N-(2-{[2-(4-hydroxy-2-oxo-2,3-dihydro-1,3-benzothiazol-7-yl)ethyl]amino}ethyl)-β-alaninamide bis-trifluoroacetic acid salt] | 0.96
